Laboratory results published in patent publication US11572362B2, “Pyrrolo[1,2-b]pyridazine derivatives” (Gilead Sciences, Inc., priority 2018, dated 2023).

Legend:
IRAK4 = IRAK4 (Homo sapiens (Human), UniProt Q9NWZ3); test: IRAK4 Biochemical Assay (TR-FRET/HTRF); details: IRAK4 enzyme 0.75 nM, 500 μM ATP, 2 μM STK1 peptide, 120 min
How it was run: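 Recombinant IRAK4 (0.75 nM) with 2 µM STK1 peptide and 500 µM ATP in pH 7.0 HEPES/Mg buffer; compound preincubated 15 min with enzyme and peptide, then 120 min reaction at room temperature. HTRF readout: cryptate anti-phospho-peptide antibody, 665/615 nm ratio; % inhibition against no-inhibitor and saturating-staurosporine controls.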

TNFα = test: IRAK4 Monocyte TNFα Cell Based Assay; details: Monocyte; cryopreserved human monocytes, 50 pg/ml LPS, compound 1 hour pre-treatment, 4 hours stimulation, TNFα by TR-FRET
How it was run: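 Monocytes at 5,000 cells/well were pre-treated with compound for 1 h at 37 °C (0.1% DMSO final), then stimulated with 50 pg/ml LPS for 4 h. Secreted TNFα in supernatant was measured by TR-FRET (665/615 ratio), expressed as % control relative to unstimulated and stimulated cells.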

Sequence of IRAK4 (Q9NWZ3 whole entry): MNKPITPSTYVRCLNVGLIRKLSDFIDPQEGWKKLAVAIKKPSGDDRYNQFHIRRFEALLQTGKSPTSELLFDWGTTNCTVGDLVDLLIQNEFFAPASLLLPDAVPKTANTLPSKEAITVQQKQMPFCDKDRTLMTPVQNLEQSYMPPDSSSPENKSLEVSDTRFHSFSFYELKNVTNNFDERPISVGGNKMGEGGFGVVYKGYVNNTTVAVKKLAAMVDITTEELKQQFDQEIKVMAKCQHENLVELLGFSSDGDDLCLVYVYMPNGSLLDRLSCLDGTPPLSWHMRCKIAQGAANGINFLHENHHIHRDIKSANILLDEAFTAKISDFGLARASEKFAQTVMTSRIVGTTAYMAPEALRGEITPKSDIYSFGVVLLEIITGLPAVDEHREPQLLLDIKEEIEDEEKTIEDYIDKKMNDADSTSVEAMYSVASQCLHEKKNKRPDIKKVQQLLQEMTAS

IC50 (IRAK4) [nM] | EC50 (TNFα) [nM] | SMILES
< 1 | 39 | CC(C)(O)[C@H](F)CNC(=O)c1cnc(-c2ccc3cc(C#N)cnn23)cc1N[C@@H]1CC[C@@H](c2nnc(C(F)F)o2)OC1 [Compound 63, 6-(3-cyanopyrrolo[1,2-b]pyridazin-7-yl)-4-(((3R,6S)-6-(5-(difluoromethyl)-1,3,4-oxadiazol-2-yl)tetrahydro-2H-pyran-3-yl)amino)-N-((R)-2-fluoro-3-hydroxy-3-methylbutyl)nicotinamide]
1 | 50 | Cc1nnc([C@H]2CC[C@H](Nc3cc(-c4ccc5cc(C#N)cnn45)ncc3C(=O)NC[C@@H](F)C(C)(C)O)CC2)s1 [Compound 52, 6-(3-cyanopyrrolo[1,2-b]pyridazin-7-yl)-N-((R)-2-fluoro-3-hydroxy-3-methylbutyl)-4-(((1r,4R)-4-(5-methyl-1,3,4-thiadiazol-2-yl)cyclohexyl)amino)nicotinamide]
< 1 | 15 | CC(C)(O)[C@H](F)CNC(=O)c1cnc(-c2ccc3cc(C#N)cnn23)cc1NC12CCC(N3CCOCC3=O)(CC1)CC2 [Compound 69, (R)-6-(3-cyanopyrrolo[1,2-b]pyridazin-7-yl)-N-(2-fluoro-3-hydroxy-3-methylbutyl)-4-((4-(3-oxomorpholino)bicyclo[2.2.2]octan-1-yl)amino)nicotinamide]
2 | 60 | CC(C)(O)[C@H](F)CNC(=O)c1cnc(-c2ccc3cc(C#N)cnn23)cc1NC1CCC(c2ncn(C(F)F)n2)CC1 (stereo partly drawn) [Compound 21, (R)-6-(3-cyanopyrrolo[1,2-b]pyridazin-7-yl)-4-((4-(1-(difluoromethyl)-1H-1,2,4-triazol-3-yl)cyclohexyl)amino)-N-(2-fluoro-3-hydroxy-3-methylbutyl)nicotinamide]
1 | 200 | CC(C)(O)[C@H](F)CNC(=O)c1cnc(-c2ccc3cc(C#N)cnn23)cc1N[C@H]1CC[C@H](n2cc(C3COC3)nn2)CC1 [Compound 33, 6-(3-cyanopyrrolo[1,2-b]pyridazin-7-yl)-N-((R)-2-fluoro-3-hydroxy-3-methylbutyl)-4-(((1r,4R)-4-(4-(oxetan-3-yl)-1H-1,2,3-triazol-1-yl)cyclohexyl)amino)nicotinamide]
1 | 52 | Cc1ncc([C@H]2CC[C@H](Nc3cc(-c4ccc5cc(C#N)cnn45)ncc3C(=O)NC[C@@H](F)C(C)(C)O)CC2)s1 [Compound 50, 6-(3-cyanopyrrolo[1,2-b]pyridazin-7-yl)-N-((R)-2-fluoro-3-hydroxy-3-methylbutyl)-4-(((1r,4R)-4-(2-methylthiazol-5-yl)cyclohexyl)amino)nicotinamide]
< 1 | 9 | CC(C)(O)[C@H](F)CNC(=O)c1cnc(-c2ccc3cc(C#N)cnn23)cc1N[C@H]1CC[C@H](c2cnn(C(F)F)c2)CC1 [Compound 3, 6-(3-cyanopyrrolo[1,2-b]pyridazin-7-yl)-4-(((1r,4R)-4-(1-(difluoromethyl)-1H-pyrazol-4-yl)cyclohexyl)amino)-N-((R)-2-fluoro-3-hydroxy-3-methylbutyl)nicotinamide]
< 1 | 58 | CC(C)(O)[C@H](F)CNC(=O)c1cnc(-c2ccc3cc(C#N)cnn23)cc1N[C@H]1CC[C@H](n2cc(CC#N)cn2)CC1 [Compound 27, 4-(((1r,4R)-4-(4-(cyanomethyl)-1H-pyrazol-1-yl)cyclohexyl)amino)-6-(3-cyanopyrrolo[1,2-b]pyridazin-7-yl)-N-((R)-2-fluoro-3-hydroxy-3-methylbutyl)nicotinamide]
< 1 | 4 | CC(C)(O)[C@H](F)CNC(=O)c1cnc(-c2ccc3cc(C#N)cnn23)cc1N[C@H]1CC[C@H](c2cn[nH]c2)CC1 [Compound 1, 4-(((1r,4R)-4-(1H-pyrazol-4-yl)cyclohexyl)amino)-6-(3-cyanopyrrolo[1,2-b]pyridazin-7-yl)-N-((R)-2-fluoro-3-hydroxy-3-methylbutyl)nicotinamide]
< 1 | 8 | CC(C)(O)[C@H](F)CNC(=O)c1cnc(-c2ccc3cc(C#N)cnn23)cc1NC12CCC(c3cnco3)(CC1)CC2 [Compound 66, (R)-6-(3-cyanopyrrolo[1,2-b]pyridazin-7-yl)-N-(2-fluoro-3-hydroxy-3-methylbutyl)-4-((4-(oxazol-5-yl)bicyclo[2.2.2]octan-1-yl)amino)nicotinamide]
< 1 | 19 | CC(C)(O)[C@H](F)CNC(=O)c1cnc(-c2ccc3cc(C#N)cnn23)cc1NC12CCC(c3nnc(C(F)F)o3)(CC1)CC2 [Compound 62, (R)-6-(3-cyanopyrrolo[1,2-b]pyridazin-7-yl)-4-((4-(5-(difluoromethyl)-1,3,4-oxadiazol-2-yl)bicyclo[2.2.2]octan-1-yl)amino)-N-(2-fluoro-3-hydroxy-3-methylbutyl)nicotinamide]
< 1 | 38 | CC(C)(O)[C@H](F)CNC(=O)c1cnc(-c2ccc3cc(C#N)cnn23)cc1N[C@H]1CC[C@H](c2nnc(C3CC3)o2)CC1 [Compound 41, 6-(3-cyanopyrrolo[1,2-b]pyridazin-7-yl)-4-(((1r,4R)-4-(5-cyclopropyl-1,3,4-oxadiazol-2-yl)cyclohexyl)amino)-N-((R)-2-fluoro-3-hydroxy-3-methylbutyl)nicotinamide]
1 | 66 | COCc1nnc([C@H]2CC[C@H](Nc3cc(-c4ccc5cc(C#N)cnn45)ncc3C(=O)NC[C@@H](F)C(C)(C)O)CC2)o1 [Compound 40, 6-(3-cyanopyrrolo[1,2-b]pyridazin-7-yl)-N-((R)-2-fluoro-3-hydroxy-3-methylbutyl)-4-(((1r,4R)-4-(5-(methoxymethyl)-1,3,4-oxadiazol-2-yl)cyclohexyl)amino)nicotinamide]
1 | 23 | CC(C)(O)[C@H](F)CNC(=O)c1cnc(-c2ccc3cc(C#N)cnn23)cc1NC12CCC(c3nnc(C(F)F)o3)(CC1)OC2 [Compound 65, (R)-6-(3-cyanopyrrolo[1,2-b]pyridazin-7-yl)-4-((1-(5-(difluoromethyl)-1,3,4-oxadiazol-2-yl)-2-oxabicyclo[2.2.2]octan-4-yl)amino)-N-(2-fluoro-3-hydroxy-3-methylbutyl)nicotinamide]
< 1 | 28 | Cc1nc([C@H]2CC[C@H](Nc3cc(-c4ccc5cc(C#N)cnn45)ncc3C(=O)NC[C@@H](F)C(C)(C)O)CC2)no1 [Compound 44, 6-(3-cyanopyrrolo[1,2-b]pyridazin-7-yl)-N-((R)-2-fluoro-3-hydroxy-3-methylbutyl)-4-(((1r,4R)-4-(5-methyl-1,2,4-oxadiazol-3-yl)cyclohexyl)amino)nicotinamide]
7 | 114 | Cc1nn(C(F)F)cc1C1CCC(Nc2cc(-c3ccc4cc(C#N)cnn34)ncc2C(=O)NC[C@@H](F)C(C)(C)O)CC1 (stereo partly drawn) [Compound 9, (R)-6-(3-cyanopyrrolo[1,2-b]pyridazin-7-yl)-4-((4-(1-(difluoromethyl)-3-methyl-1H-pyrazol-4-yl)cyclohexyl)amino)-N-(2-fluoro-3-hydroxy-3-methylbutyl)nicotinamide]
1 | 27 | CC(C)(O)[C@H](F)CNC(=O)c1cnc(-c2ccc3cc(C#N)cnn23)cc1N[C@H]1CC[C@H](c2cn(C(F)F)nn2)CC1 [Compound 18, 6-(3-cyanopyrrolo[1,2-b]pyridazin-7-yl)-4-(((1r,4R)-4-(1-(difluoromethyl)-1H-1,2,3-triazol-4-yl)cyclohexyl)amino)-N-((R)-2-fluoro-3-hydroxy-3-methylbutyl)nicotinamide]
10 | 1050 | Cc1ncoc1[C@@H]1CCC[C@@H](Nc2cc(-c3ccc4cc(C#N)cnn34)ncc2C(=O)NC[C@@H](F)C(C)(C)O)C1 [Compound 48, 6-(3-cyanopyrrolo[1,2-b]pyridazin-7-yl)-N-((R)-2-fluoro-3-hydroxy-3-methylbutyl)-4-(((1R,3R)-3-(4-methyloxazol-5-yl)cyclohexyl)amino)nicotinamide]
1 | 21 | CC(C)(O)[C@H](F)CNC(=O)c1cnc(-c2ccc3cc(C#N)cnn23)cc1NC1CCC(c2cnc(C(F)F)nc2)CC1 (stereo partly drawn) [Compound 59, (R)-6-(3-cyanopyrrolo[1,2-b]pyridazin-7-yl)-4-((4-(2-(difluoromethyl)pyrimidin-5-yl)cyclohexyl)amino)-N-(2-fluoro-3-hydroxy-3-methylbutyl)nicotinamide]
< 1 | 26 | Cn1nnnc1[C@H]1CC[C@H](Nc2cc(-c3ccc4cc(C#N)cnn34)ncc2C(=O)NC[C@@H](F)C(C)(C)O)CC1 [Compound 16, 6-(3-cyanopyrrolo[1,2-b]pyridazin-7-yl)-N-((R)-2-fluoro-3-hydroxy-3-methylbutyl)-4-(((1r,4R)-4-(1-methyl-1H-tetrazol-5-yl)cyclohexyl)amino)nicotinamide]
< 1 | 43 | CC(C)(O)[C@H](F)CNC(=O)c1cnc(-c2ccc3cc(C#N)cnn23)cc1N[C@H]1CC[C@H](n2cc(C(N)=O)nn2)CC1 [Compound 34, 4-(((1r,4R)-4-(4-carbamoyl-1H-1,2,3-triazol-1-yl)cyclohexyl)amino)-6-(3-cyanopyrrolo[1,2-b]pyridazin-7-yl)-N-((R)-2-fluoro-3-hydroxy-3-methylbutyl)nicotinamide]
0.868 | 71.4 | CC(C)(O)[C@H](F)CNC(=O)c1cnc(-c2ccc3cc(C#N)cnn23)cc1N[C@H]1CC[C@H](c2nnc(C(F)F)o2)OC1 [Compound 74, 6-(3-cyanopyrrolo[1,2-b]pyridazin-7-yl)-4-(((3S,6R)-6-(5-(difluoromethyl)-1,3,4-oxadiazol-2-yl)tetrahydro-2H-pyran-3-yl)amino)-N-((R)-2-fluoro-3-hydroxy-3-methylbutyl)nicotinamide]
